Assay results as given in patent publication US8771714B2, “Systems and methods for in vivo measurement of interstitial biological activity, processes and/or compositions” (MUSC Foundation for Research Development, priority 2006, dated 2014).
Read-outs that look alike come from different tables or passages of the source. Each block holds one molecule with its values, some of them ahead of it. Square brackets hold non-standard residues; d marks the D form. * marks the point of attachment. Dpa = 3-(2,4-dinitrophenyl)-L-2,3-diaminopropionyl; Dnp = O=[N+]([O-])c1ccc(*)c([N+](=O)[O-])c1; Mca = COc1ccc2c(CC(=O)*)cc(=O)oc2c1; Cha = N[C@@H](CC1CCCCC1)C(=O)O; Nva = CCC[C@H](N)C(=O)O; Mob = COc1ccc(C*)cc1

Legend:
[1] = molecular target: T1, MT1-MMP (MMP-14) recombinant catalytic domain (Homo sapiens, UniProt P50281); assay: In vitro validation of MT1-MMP fluorogenic substrate with recombinant MT1-MMP catalytic domain; format: biochemical
T1 construct: recombinant MT1-MMP catalytic domain (BIOMOL, Plymouth Meeting, Pa.); purchased BIOMOL, Plymouth Meeting, Pa
Procedure: Examples of fluorogenic substrate specificity for MMPs are shown below.
Specifically, MT1-MMP substrate (7.5 mM) was injected into a 96-well polystyrene plate (Nalge Nunc International, Rochester, N.Y.) with a 1.0 ng/mL concentration of recombinant MT1-MMP catalytic domain (BIOMOL, Plymouth Meeting, Pa.) and fluorescence emission was recorded. A rapid rise in activity, as measured by fluorescence emission, plateaued around 90 minutes. […] (FIG. 15, top). In addition, full length MT1-MMP (pretreated with 10 mM p-aminophenylmercuric acetate) was incubated for 1 hour at 37° C. with or without an antibody specific for the catalytic domain of MT1-MMP (1000 ng/mL, Chemicon AB8102). After the incubation period, the MT1-MMP substrate was injected and fluorescence emission recorded.
(§1) In an additional set of experiments (FIG. 16), MT1-MMP catalytic domain (1000 ng/mL, BIOMOL, Plymouth Meeting, Pa.) was injected into a 96-well polystyrene plate (Nalge Nunc International, Rochester, N.Y.) with a 30 mM mixture of MT1-MMP substrate only or MT1-MMP substrate with MMP-2/9 (500 ng/mL, Chemicon; FIG. 16, top), MMP-8 (10 ng/mL, Calbiochem; FIG. 16, middle), or a disintegrin and metalloproteinase (ADAM)-10 and -17 cocktail (200 ng/mL, R&D Systems; FIG. 16, bottom).

MMP-2/9 = assay: Specificity of MT1-MMP substrate: incubation with MMP-2/9; format: biochemical; details: MMP-2/9 500 ng/mL alone, 30 mM substrate
Procedure: as §1

MMP-8 = molecular target: T2, MMP-8 (Homo sapiens, UniProt P22894); assay: Specificity of MT1-MMP substrate: incubation with MMP-8; format: biochemical; details: MMP-8 10 ng/mL alone, 30 mM substrate
T2 construct: purchased Calbiochem
T2 sequence (P22894 101-467, species assumed): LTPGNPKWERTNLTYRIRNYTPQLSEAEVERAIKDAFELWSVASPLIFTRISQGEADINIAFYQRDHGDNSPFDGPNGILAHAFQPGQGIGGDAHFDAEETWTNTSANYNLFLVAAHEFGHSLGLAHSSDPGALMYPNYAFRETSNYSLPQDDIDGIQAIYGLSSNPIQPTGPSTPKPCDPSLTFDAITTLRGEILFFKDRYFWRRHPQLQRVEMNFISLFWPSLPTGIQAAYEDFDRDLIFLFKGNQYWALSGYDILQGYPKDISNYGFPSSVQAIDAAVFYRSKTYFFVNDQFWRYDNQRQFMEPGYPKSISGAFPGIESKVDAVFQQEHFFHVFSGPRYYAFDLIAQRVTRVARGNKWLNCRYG
Procedure: as §1

[2] = test system: a disintegrin and metalloproteinase (ADAM)-10 and -17; assay: Specificity of MT1-MMP substrate: incubation with ADAM-10 and -17 cocktail; format: biochemical; details: ADAM-10 and -17 cocktail 200 ng/mL alone, 30 mM substrate
Procedure: as §1

MMPs = MMPs that cleave the substrate, commercially available substrates, cited from earlier work
angiotensin receptor = angiotensin receptor (Sus scrofa, UniProt P30555); details: bolus of 1 mg/kg, infusion of 3 ng/kg/h; previously found; cited from earlier work
Chain of angiotensin receptor (P30555 whole entry, the tested form may be a part): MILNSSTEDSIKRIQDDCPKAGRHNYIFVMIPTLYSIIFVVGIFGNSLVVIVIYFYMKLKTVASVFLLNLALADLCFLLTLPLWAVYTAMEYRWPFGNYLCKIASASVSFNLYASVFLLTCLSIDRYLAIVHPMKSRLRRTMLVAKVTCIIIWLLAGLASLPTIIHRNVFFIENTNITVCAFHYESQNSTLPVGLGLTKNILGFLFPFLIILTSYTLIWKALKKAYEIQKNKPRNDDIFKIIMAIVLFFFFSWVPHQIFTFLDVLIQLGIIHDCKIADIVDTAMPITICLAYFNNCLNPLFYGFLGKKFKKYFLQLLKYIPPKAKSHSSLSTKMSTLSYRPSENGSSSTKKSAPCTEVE

[3] = test system: MMP-2/9 recombinant protein; assay: MMP-1, 2, 3, 7, 9 substrate incubated with MMP-2/9 recombinant protein; format: biochemical
Procedure: Microdialysis: Microdialysis probes with a molecular weight cutoff of 20 kDa and an outer diameter of 0.5 mm were placed in the LV. The molecular weight cutoff of the microdialysis probe prevented any MMP species from traversing the membrane. A fluorogenic substrate specific for MMP-1, 2, 3, 7, and 9 (Calbiochem, La Jolla, Calif.) at a concentration of 60 ˜mol/L was stored in a 2.5 mL Bee Stinger® Gastight Syringe (Bioanalytical Systems, Inc) and infused at a rate of 5 ˜L/min through the 2 probes by the Baby Bee® Syringe Drive controlled by the MD-1020 Bee Hive Controller (Bioanalytical Systems, Inc). Fluorescence emitted via substrate cleavage deter-mined MMP activity. Substrate was allowed to equilibrate for 20 minutes before the beginning of the protocol. All tubing and syringes were protected from light. The specificity of this substrate was determined and performed as described for these fluorogenic substrates previously. […] With the addition of a broad spectrum MMP inhibitor (BB-94, 10 mmol/L, British Biotech), fluorescence emission was abolished.

purified MMP-2/9 = assay: In vitro microdialysis of MMP substrate in immersion solution with purified MMP-2/9; format: biochemical; details: infused at 2.5 ml/min, purified MMP-2/9, 37° C.
MMP-1, 2, 3, 7, 9 = assay: Ex-vivo MMP-1, 2, 3, 7, 9 activity in myocardial extracts; format: biochemical, human; parameters: dose or concentration left out as unconfirmed; details: BB94; FIG. 18
Procedure: In addition, these substrates were used to examine MMP activity ex-vivo using myocardial samples from both human and animal specimens. The frozen myocardial tissue was submerged in 2 mL of ice-cold buffer (Cacodylic Acid, NaCl, ZnCl2, CaCl2, NaN3, 0.08% Triton X), homogenized, and spun at 8,000 G for 10 minutes at 4C. The supernatant was then measured, tested for protein concentration, aliquoted, and stored at −70° C. Final protein concentrations were diluted in a reaction buffer containing (0.05% Brij, 50 mM Tris-HCl, 0.2 M NaCl, 10 mM CaCl2, […]) and the samples were loaded onto a 96-well microplate (FluoroNunc® 96-Well Polystyrene Plates) and placed in a 37° C. temperature controlled unit allowing for continuous fluorescence measurements (FLUOstar® Galaxy, BMG Labtechnologies). Substrate (MMP Substrate, Fluorogenic, Calbiochem) was diluted in the same reaction buffer and loaded into the FLUOstar® for automatic injection (12 mM). […] Excitation was set to (280 nm) and emission was set to (360 nm) and readings were taken every 2 minutes following the addition of the substrate. The reaction was allowed to proceed to 200 recordings (398 minutes). This reaction using the MMP-1, 2, 3, 7, 9 specific substrate was linear with increasing concentrations.

MMP-14 = molecular target: T3, MMP-14 (Homo sapiens, UniProt P50281); assay: Ex-vivo MMP-14 activity in myocardial extracts; format: biochemical; parameters: dose or concentration left out as unconfirmed; details: BB94; FIG. 22
T3 construct: from tissue; host or cells: human myocardium, crude homogenate
Procedure: A similar experiment was done utilizing the fluorogenic substrate specific for MT1-MMP (MMP-14). Substrate (MMP-14 Substrate I, Fluorogenic, Calbiochem) was diluted in the same reaction buffer and loaded into the FLUOstar® for automatic injection (10 μM). […] The reaction was allowed to proceed in which 200 recordings (398 minutes) were collected. This reaction using the MMP-14 specific substrate was linear with increasing concentrations of a recombinant MMP-14 catalytic domain ([…], Chemicon) (FIG. 20).

MT1-MMP catalytic domain = assay: Validation of LTBP-1 fluorogenic substrate with MT1-MMP catalytic domain; format: biochemical; details: 15 uM LTBP-1 substrate; 0007258 5 pM; BB94 1 uM; AB8102 1 mg/mL
Description: Previous studies have identified mutations within a similar type of domain in fibrillin-1, an LTBP-1 homologue, implicated in Marfan Syndrome (MFS). Furthermore, MFS has been associated with the over-stimulation of TGF-Beta signaling as a result of fibrillin-1 mutation. Using this unique sequence, a fluorogenic peptide was constructed and validated. This peptide sequence was synthesized in a caged fluorogenic construct (AnaSpec Inc, CA; newly assigned peptide name:SCJJ-1) with a certified HPLC purity of >98% FIG. 28. Using the incubation conditions and fluorescent equipment described in the previous section, and a specific excitation/emission wavelength (340/483 nm), 15 uM of LTBP-1 was exposed to increasing concentrations of the MT1-MMP catalytic domain FIG. 28.
Thus, an LTBP-1 peptide sequence constructed and validated that is specifically cleaved by MT1-MMP.

MMP-2 and MMP-9 = test system: MMP-2 and MMP-9; parameters: species or system pigs; details: pig, in vivo

- fluorescence emission from the substrate ([1]; injection of MT1-MMP catalytic domain 1000 ng/mL, in all protease cocktails): rapid rise in fluorescence emission
- time at which fluorescence emission plateaued ([1]; substrate 7.5 mM, 1.0 ng/mL recombinant MT1-MMP catalytic domain): around 90 minutes
- fluorescence emission from the substrate (MMP-8): failed to cause fluorescence emission
- fluorescence emission from the substrate [2]: failed to cause fluorescence emission
Molecule: MCA-Pro-Leu-Ala-Cys(p-OMeBz)-Trp-Ala-Arg(Dpa)-NH2 (Mca-PLAC(Mob)WAR(Dpa)-NH2) [SEQ ID NO: 8]
- fluorescence emission from the substrate (MMP-2/9): failed to cause fluorescence emission
- Specificity (MMPs): MMP-14
- Specificity (MMPs; listed as SEQ ID NO:8): cleaved selectively by MMP-14

Molecule: DABCYL-GABA-Arg-Pro-Lys-Pro-Val-Glu-Nva-Trp-Arg-Glu(EDANS)-Ala-Lys-NH2 [SEQ ID NO: 2]
- Specificity (MMPs): MMP-3,5,9,13

Molecule: CCCCC(=O)N(Cc1ccc(-c2ccccc2-c2nnn[nH]2)cc1)[C@H](C(=O)O)C(C)C [Valsartan]
- effect on angiotensin pressor response (angiotensin receptor): inhibited the angiotensin pressor response

Molecule: DNP-Pro-Leu-Ala-Leu-Trp-Arg-OH (Dnp-PLALWR-OH; SMILES CC(C)C[C@H](NC(=O)[C@H](C)NC(=O)[C@H](CC(C)C)NC(=O)[C@@H]1CCCN1c1ccc([N+](=O)[O-])cc1[N+](=O)[O-])C(=O)N[C@@H](Cc1c[nH]c2ccccc12)C(=O)N[C@@H](CCCNC(=N)N)C(=O)O) [SEQ ID NO: 3]
- Specificity (MMPs): MMP-1

Molecule: DNP-Pro-Leu-Gly-Leu-Trp-Ala-D-Arg-NH2 (Dnp-PLGLWA[dR]-NH2; SMILES CC(C)C[C@H](NC(=O)CNC(=O)[C@H](CC(C)C)NC(=O)[C@@H]1CCCN1c1ccc([N+](=O)[O-])cc1[N+](=O)[O-])C(=O)N[C@@H](Cc1c[nH]c2ccccc12)C(=O)N[C@@H](C)C(=O)N[C@H](CCCNC(=N)N)C(N)=O) [SEQ ID NO: 1]
- time to steady-state fluorescence emission ([3]; MMP-2/9 recombinant protein 500 ng/mL): ≤ 60 min
- Specificity (MMPs): MMP-1,2,3,7,9
- Specificity (MMPs; listed as SEQ ID NO:1): cleaved selectively by MMPs 1, 2, 3, 7, 9

Molecule: DNP-Pro-Tyr-Ala-Tyr-Trp-Met-Arg-OH (Dnp-PYAYWMR-OH; SMILES CSCC[C@H](NC(=O)[C@H](Cc1c[nH]c2ccccc12)NC(=O)[C@H](Cc1ccc(O)cc1)NC(=O)[C@H](C)NC(=O)[C@H](Cc1ccc(O)cc1)NC(=O)[C@@H]1CCCN1c1ccc([N+](=O)[O-])cc1[N+](=O)[O-])C(=O)N[C@@H](CCCNC(=N)N)C(=O)O) [SEQ ID NO: 4]
- Specificity (MMPs): MMP-3

Molecule: Dnp-PLGLGMWSR-OH
- time at which relative fluorescence plateaued (purified MMP-2/9): ≤ 60 min

- fluorescence emission with addition of BB94 ([1]; MT1-MMP recombinant catalytic domain, FIG. 13): abolishment of fluorescence emission
- inhibition of MMP-14 substrate reaction (MMP-14): significantly inhibited
Molecule: CNC(=O)[C@H](Cc1ccccc1)NC(=O)[C@H](CC(C)C)[C@H](CSc1cccs1)C(=O)NO [BB94]
- inhibition of MMP-1, 2, 3, 7, 9 substrate reaction (MMP-1, 2, 3, 7, 9): significantly inhibited
- fluorescence emission with addition of inhibitor ([3]; BB-94, MMP-2/9 500 ng/mL): abolished
- fluorescent activity on co-incubation (MT1-MMP catalytic domain): extinguished all fluorescent activity

Molecule: DNP-Pro-Leu-Gly-Met-Trp-Ser-Arg-OH (Dnp-PLGMWSR-OH; SMILES CSCC[C@H](NC(=O)CNC(=O)[C@H](CC(C)C)NC(=O)[C@@H]1CCCN1c1ccc([N+](=O)[O-])cc1[N+](=O)[O-])C(=O)N[C@@H](Cc1c[nH]c2ccccc12)C(=O)N[C@@H](CO)C(=O)N[C@@H](CCCNC(=N)N)C(=O)O) [SEQ ID NO: 9]
- Specificity (MMPs): MMP-2,9

Molecule: MCA-Pro-Cha-Gly-Nva-His-Ala-Dpa-NH2 (Mca-P[Cha]G[Nva]HA-{Dpa-NH2}) [SEQ ID NO: 7]
- Specificity (MMPs): MMP-13

Molecule: DNP-Arg-Pro-Leu-Ala-Leu-Trp-Arg-Ser-OH (Dnp-RPLALWRS-OH; SMILES CC(C)C[C@H](NC(=O)[C@H](C)NC(=O)[C@H](CC(C)C)NC(=O)[C@@H]1CCCN1C(=O)[C@H](CCCNC(=N)N)Nc1ccc([N+](=O)[O-])cc1[N+](=O)[O-])C(=O)N[C@@H](Cc1c[nH]c2ccccc12)C(=O)N[C@@H](CCCNC(=N)N)C(=O)N[C@@H](CO)C(=O)O) [SEQ ID NO: 5]
- Specificity (MMPs): MMP-7

Molecule: CNC(=O)[C@H](Cc1c[nH]c2ccccc12)NC(=O)[C@@H](CC(=O)NO)CC(C)C [galardin]
- fluorescent activity in interstitial microdialysate samples on coinfusion with MMP substrate (MMP-2 and MMP-9): abolished all fluorescent activity

Molecule: DNP-Pro-Leu-Ala-Tyr-Trp-Ala-Arg-OH (Dnp-PLAYWAR-OH; SMILES CC(C)C[C@H](NC(=O)[C@@H]1CCCN1c1ccc([N+](=O)[O-])cc1[N+](=O)[O-])C(=O)N[C@@H](C)C(=O)N[C@@H](Cc1ccc(O)cc1)C(=O)N[C@@H](Cc1c[nH]c2ccccc12)C(=O)N[C@@H](C)C(=O)N[C@@H](CCCNC(=N)N)C(=O)O) [SEQ ID NO: 6]
- Specificity (MMPs): MMP-8
